# Assay results reported in patent publication US8187646B2, “Nucleotide pyrophosphatase inhibitor and coenzyme regenerating systems” (Puratos N.V., priority 2004, dated 2012).
# “Also recorded” adds a separate entry of the source.
# Key:
# [1] = test system: wheat flour nucleotide pyrophosphatase (NPP); test: In vitro NPP inhibition studies (NAD+ degradation by wheat flour extract); format: biochemical; details: for ability to inhibit NPP in wheat flour: ADP about 1-2 mM, phosphates tested at 10 g/l; for reactivation of the inhibited enzyme by divalent metal ions: addition of divalent ions (Mg2+, Mn2+; excess MgCl2, MnCl2, ZnCl2, CaCl2)
# Description: As an example of nucleotide pyrophosphatase inhibition, pyrophosphate was tested.
# To perform in vitro nucleotide pyrophosphatase (NPP) inhibition studies, a reaction mixture of 5 ml was made containing 2.5 ml of flour extract (see Example 12), 1.5 ml of NAD^+ or NADH solution and 1 ml of potential inhibitor. The coenzymes and inhibitors were dissolved in a 0.2 M acetate buffer at pH 5.5. The final coenzyme concentration was 0.5 mM, unless otherwise mentioned. The different phosphates ([…] (Na2H2P2O7), sodium metaphosphate ((NaPO3)n), pentasodium tripolyphosphate (Na5P3O10), tetrasodium pyrophosphate (Na4P2O7) and dicalcium pyrophosphate (CaH2P2O7)) were tested in a concentration of 10 g/l. For the reactivation experiments with metal ions and to test a synergetic effect of glycine with EDTA the reaction mixture was adapted: 500 μl of inhibitor was added together with 500 μl of cation or glycine instead of 1 ml inhibitor. For the reactivation experiments with metal ions, the chloride forms of the cations were used, i.e. MgCl2, MnCl2, ZnCl2 and CaCl2.
# A flour extract was prepared based on the method described by Honold et al. (1966, Cereal Chemistry 43:517-528). To 5 g of flour, 25 ml of an aqueous 12.5% sucrose solution was added. The solution was homogenised with an UltraTurrax mixer (IKA Werke, Janke & Kunkel GmbH & CoKG, Staufen, Germany). This homogenised flour suspension was centrifuged during 5 minutes at 1000 rpm (77 g) (SS34 rotor, Sorvall RC 5B centrifuge). The supernatant was recovered and filtrated through Whatman No. 1 filter paper. The filtrate was used as crude flour extract. All steps were carried out between 0° C. and 5° C.
# [2] = test system: nicotinamide coenzymes NAD+/NADH in dough systems; test: Coenzyme (NAD+/NADH) concentrations in dough systems (mini doughs); set-up: species or system wheat; details: 0.3 g calcium pyrophosphate per 100 g flour; before and after 60 minutes dough resting at 25° C.
# Description: The oxidised (NAD^+) and reduced (NADH) form of the nicotinamide coenzymes were extracted from doughs with an acid and alkaline extraction method respectively.
# The coenzymes, NAD^+ and NADH, can be determined with an isocratic reversed phase HPLC method on a Varian Prostar HPLC system. Separation of the coenzymes NAD^+ and NADH was carried out on a Chromsep Microspher 3C18 column (3 μm particle size, 4.6×100 mm, Chrompack). The mobile phase was 96% 0.15 M citrate-sodium phosphate buffer (pH 6.8) containing 1 mM EDTA, and 4% methanol (30° C.). The flow rate was 0.5 ml/min and detection was accomplished by UV absorption at 260 nm (Varian Prostar UV 320).
# All samples were filtrated (Sartorius Minisart RC15, 0.45 μm) and sample injection (20 μl) was accomplished with a Varian Prostar 410 autosampler. The nucleotide concentration was measured by the peak area of the chromatogram with calibration curves, which were prepared using a known amount of coenzymes.
# Baking tests were performed with mini doughs (150 g).
# The doughs were kneaded with a pin mixer during 4.5 minutes, after which they were incubated during 20 minutes at 25° C. The dough was sheeted and incubated again at 25° C. during 20 minutes, after which it was sheeted and incubated for 50 minutes at 36° C. and at a relative humidity of 80%. […] Bread volume after baking was determined by the rapeseed displacement method.
# [3] = inhibitor at 4 mM, in vitro tests
molecule,measurement,setting,value
"O[C@H](CS)[C@H](O)CS (racemic) [DTT, dithiothreitol]",inhibition of the NPP,[1]; [3],inhibited the NPP at some extent
Nc1ncnc2c1ncn2[C@@H]1O[C@H](COP(=O)(O)OP(=O)(O)O)[C@@H](O)[C@H]1O [ADP],inhibition of the NPP,[1]; ADP 1 mM,inhibit the NPP partially
same,ability to inhibit NPP in wheat flour,[1],able to inhibit
"O=P([O-])(O)OP(=O)([O-])O.[Ca+2] [Ca-pyrophosphate, CaH2P2O7]",inhibition of NAD+ degradation by a wheat flour extract,[1]; 50 to 100 mM Ca-pyrophosphate,completely inhibit
O=C(O)CN(CCN(CC(=O)O)CC(=O)O)CC(=O)O [EDTA],reactivation of the inhibited enzyme by divalent metal ions,[1],reactivated partially
same,inhibition of the wheat flour NPP,"[1]; from a concentration of 4 mM EDTA on, in vitro",complete inhibition
N[C@@H](CS)C(=O)O [L-cysteine],inhibition of the NPP,[1]; [3],inhibited the NPP at some extent
O=P(O)(O)OP(=O)(O)O [pyrophosphate],inhibition of NAD+ degradation by a wheat flour extract,[1]; 10 mM pyrophosphate,Partial inhibition
same,inhibition of NAD+ degradation by a wheat flour extract,[1]; 20 mM pyrophosphate,Partial inhibition
same,reactivation of the inhibited enzyme by divalent metal ions,[1],This is not the case; also recorded: could not reactivate the enzyme
same,mode of inhibition of wheat flour nucleotide pyrophosphatase,"[1]; suggested: no reactivation by metal ions, pyrophosphate split into phosphate by flour extract",competitive inhibitor
same,coenzyme concentrations (NAD+ and NADH) in dough,[2],higher coenzyme concentrations were observed
"O=P(O)(O)OP(=O)(O)O [sodium pyrophosphate, Na2H2P2O7]",inhibition of the NPP enzyme,[1]; 100 mM sodium pyrophosphate,completely inhibited
"O=P([O-])([O-])OP(=O)([O-])OP(=O)([O-])[O-].[Na+].[Na+].[Na+].[Na+].[Na+] [tripolyphosphate, pentasodium tripolyphosphate (Na5P3O10)]",ability to inhibit NPP in wheat flour,[1],able to inhibit
sodium metaphosphate ((NaPO3)n),ability to inhibit NPP in wheat flour,[1],able to inhibit
